In patent publication US20230406865A1, “CRYSTAL FORM OF FREE BASE OF INHIBITOR CONTAINING BICYCLIC RING DERIVATIVE AND PREPARATION METHOD AND APPLICATION OF CRYSTAL FORM” (SHANGHAI HANSOH BIOMEDICAL CO., LTD., priority 2020, published 2023):

Tests used:
[1] = target: T1, KDR kinase (Homo sapiens, UniProt P35968); assay: HTRF kinase activity inhibition, KDR; format: biochemical; conditions: for IC50: HTRF, ATP at Km; for Ratio (KDR/RET): KDR IC50 / RET IC50
T1 construct: purchased Carna 08-191
Source text: 2.2 Experimental Reagents: • KDR kinase was purchased from Carna Company, and the article number was 08-191; • HTRF KinEASE-TK kit was purchased from Cisbio Company, and the article number was 62TK0PEC; • ATP was purchased from Thermofisher Company, and the article number was PV3227; • 384-well plate was purchased from PerkinElmer Company, and the article number was 6007290.
In this experiment, the homogeneous time-resolved fluorescence (HTRF) method was used for the detection of compounds on KDR kinase activity.

[2] = target: T2, RET kinase (Homo sapiens, UniProt P07949); assay: HTRF kinase activity inhibition, RET wild-type; format: biochemical; conditions: ATP at Km
T2 construct: purchased Carna 08-159
Source text: 2.2 Experimental Reagents: • RET enzyme was purchased from Carna Company, and the article number was 08-159; • RET M918T enzyme was purchased from Carna Company, and the article number was 08-508; • KIF5B-RET was purchased from SignalChem Company, the article number was R02-19FG-05; • CCDC6-RET was purchased from SignalChem Company, the article number was R02-19BG-05; • RET V804M enzyme was purchased from Thermofisher Company, and the article number was PV6223; • RET V804L enzyme was purchased from Thermofisher Company, and the article number was PV4397; • HTRF KinEASE-TK kit was purchased from Cisbio Company, and the article number was 62TK0PEC; • ATP was purchased from Thermofisher Company, and the article number was PV3227; • 384-well plate was purchased from PerkinElmer Company, and the article number was 6007290.
In this experiment, a homogeneous time-resolved fluorescence (HTRF) method was used for the detection of compounds on RET kinase activity.

[3] = test system: TT cells (MTC, RET C634W); assay: Inhibition of proliferation of TT cells (CellTiter-Glo, 72 h); format: cell-based; conditions: Homo sapiens
Protocol: TT cells were purchased from the cell bank of the Chinese Academy of Sciences.
When TT cells were cultured to the appropriate fusion level, TT cells were collected, and the cells were adjusted to the appropriate cell concentration using complete medium, and the cell suspension was spread in a 96-well plate, 90 μL per well, and placed to the wall of a 37° C., 5% CO2 incubator overnight; and compound solutions of different concentrations were prepared using DMSO and culture medium; and a solvent control was set, the compound solution was added to a 96-well plate, 10 μL per well, and placed to the wall of a 37° C., 5% CO2 incubator for 72 hours; CellTiter-Glo solution was added thereto and the mixture was mixed well by shaking, incubated for 10 minutes in the dark, and read by BioTek Synergy H1 microplate reader.
The IC50 values were obtained by using luminescence signal values to calculate the inhibition rate, the concentration and the inhibition rate were fitted to a nonlinear regression curve using Graphpad Prism software.

[4] = target: T3, Ba/F3 KIF5B-RET cells (Homo sapiens, UniProt P07949); assay: Inhibition of proliferation of Ba/F3 KIF5B-RET cells (CellTiter-Glo); format: cell-based; conditions: 72 to 144 hours
T3 construct: fused on or other part: P33176 (Kinesin-1 heavy chain)
Protocol: When Ba/F3 KIF5B-RET cells were cultured to the appropriate cell density, cells were collected, and the cells were adjusted to the appropriate cell concentration using complete medium, and the cell suspension was spread in a 96-well plate, 90 μL per well, and placed in the wall of a 37° C., 5% CO2 incubator overnight; compound solutions of different concentrations were prepared using DMSO and culture medium; a solvent control was set, and the compound solution was added to a 96-well plate with […] at 37° C. in a 5% CO2 incubator for 72 to 144 hours, CellTiter-Glo solution was added thereto and mixed well by shaking, incubated for 10 minutes in the dark, and read by BioTek Synergy H1 microplate reader.
The IC50 values were obtained by using the luminescence signal values to calculate the inhibition rate, the concentrations and the inhibition rates were fitted to a nonlinear regression curve using Graphpad Prism software.

[5] = Balb/C mouse pharmacokinetics, oral 5 mg/kg; format: in vivo, Balb/C mice; conditions: male, p.o. 5 mg/kg, plasma
Protocol: The pharmacokinetic behavior of the following compound embodiments, administered orally at a dose of 5 mg/kg in plasma in mice, was studied using Balb/C mice as test animals.
Balb/C Mouse 6/embodiment, male, Shanghai Jiesijie Laboratory Animal Co., Ltd, Animal Production License No. (SCXK (Shanghai) 2013-0006 N0.311620400001794).
Balb/C mice, males; p.o. after overnight fasting, respectively, at a dose of 5 mg/kg, administered in a volume of 10 mL/kg.
0.5% CMC-Na (1% Tween80) was dissolved by ultrasound, and prepared into clear solution or uniform suspension.
Before and after administration, 0.1 mL of blood was collected from mice at 0, 0.5, 1, 2, 4, 6, 8 and 24 hours by orbital collection, placed in EDTA-K2 tubes, centrifuged at 6000 rpm at 4° C. for 6 minutes to separate plasma, and stored at −80° C.
2.5 Sample Handling: • 1) 40 μL of plasma sample was precipitated by adding 160 μL of acetonitrile, mixed and centrifuged at 3500×g for 5-20 minutes. • 2) 100 μL of the supernatant solution after treatment was taken to analyze the concentration of the test compound by LC/MS/MS.
2.6 Liquid Phase Analysis • Liquid phase conditions: Shimadzu LC-20AD pump • Mass spectrometry conditions: AB Sciex API 4000 mass spectrometer • Chromatographic column: phenomenex Gemiu 5 μM C18 50×4.6 mm • Mobile phase: Liquid A was 0.1% formic acid aqueous solution, liquid B was acetonitrile • Flow rate: 0.8 mL/min • Elution time: 0-4.0 minutes, the eluent was as follows:
The main pharmacokinetic parameters were calculated by WinNonlin 6.1 and the results of the mouse pharmacokinetic experiments were shown in Table 13 below.

T1 sequence (P35968 20-1356): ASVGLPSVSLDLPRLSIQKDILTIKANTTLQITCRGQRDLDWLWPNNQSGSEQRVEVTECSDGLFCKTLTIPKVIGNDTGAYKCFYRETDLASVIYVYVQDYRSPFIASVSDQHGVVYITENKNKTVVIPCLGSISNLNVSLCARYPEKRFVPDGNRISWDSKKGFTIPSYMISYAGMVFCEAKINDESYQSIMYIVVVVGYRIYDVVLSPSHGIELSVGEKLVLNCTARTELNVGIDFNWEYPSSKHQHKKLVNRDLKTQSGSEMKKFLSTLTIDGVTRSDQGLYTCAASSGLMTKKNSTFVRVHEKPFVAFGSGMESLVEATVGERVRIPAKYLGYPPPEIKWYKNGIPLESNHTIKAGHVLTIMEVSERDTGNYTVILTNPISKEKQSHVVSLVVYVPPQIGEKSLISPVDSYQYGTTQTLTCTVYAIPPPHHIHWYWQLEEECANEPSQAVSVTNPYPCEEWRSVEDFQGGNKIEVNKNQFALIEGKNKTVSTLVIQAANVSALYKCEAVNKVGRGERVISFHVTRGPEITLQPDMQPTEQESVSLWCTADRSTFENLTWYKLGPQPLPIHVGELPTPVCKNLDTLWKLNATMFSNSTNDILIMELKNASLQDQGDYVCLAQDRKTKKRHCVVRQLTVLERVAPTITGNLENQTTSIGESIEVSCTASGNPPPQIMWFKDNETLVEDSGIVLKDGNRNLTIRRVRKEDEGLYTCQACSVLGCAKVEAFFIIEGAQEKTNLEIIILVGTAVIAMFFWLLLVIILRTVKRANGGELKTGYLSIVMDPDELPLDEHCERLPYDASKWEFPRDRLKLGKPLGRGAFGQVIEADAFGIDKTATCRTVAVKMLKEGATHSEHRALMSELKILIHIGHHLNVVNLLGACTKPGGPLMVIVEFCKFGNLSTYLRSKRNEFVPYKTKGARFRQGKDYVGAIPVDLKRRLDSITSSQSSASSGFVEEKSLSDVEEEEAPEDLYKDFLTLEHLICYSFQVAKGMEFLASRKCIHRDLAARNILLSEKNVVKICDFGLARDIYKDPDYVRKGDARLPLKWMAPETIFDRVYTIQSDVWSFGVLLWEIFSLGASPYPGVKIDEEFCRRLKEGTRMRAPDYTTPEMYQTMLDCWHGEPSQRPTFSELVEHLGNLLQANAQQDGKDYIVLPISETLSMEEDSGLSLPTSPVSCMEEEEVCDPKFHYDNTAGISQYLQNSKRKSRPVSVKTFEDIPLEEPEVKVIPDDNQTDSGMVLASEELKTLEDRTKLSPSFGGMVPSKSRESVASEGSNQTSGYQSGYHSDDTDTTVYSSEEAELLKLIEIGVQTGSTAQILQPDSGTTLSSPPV
T3 sequence (P07949 whole entry, change not shown, the tested form may be a part): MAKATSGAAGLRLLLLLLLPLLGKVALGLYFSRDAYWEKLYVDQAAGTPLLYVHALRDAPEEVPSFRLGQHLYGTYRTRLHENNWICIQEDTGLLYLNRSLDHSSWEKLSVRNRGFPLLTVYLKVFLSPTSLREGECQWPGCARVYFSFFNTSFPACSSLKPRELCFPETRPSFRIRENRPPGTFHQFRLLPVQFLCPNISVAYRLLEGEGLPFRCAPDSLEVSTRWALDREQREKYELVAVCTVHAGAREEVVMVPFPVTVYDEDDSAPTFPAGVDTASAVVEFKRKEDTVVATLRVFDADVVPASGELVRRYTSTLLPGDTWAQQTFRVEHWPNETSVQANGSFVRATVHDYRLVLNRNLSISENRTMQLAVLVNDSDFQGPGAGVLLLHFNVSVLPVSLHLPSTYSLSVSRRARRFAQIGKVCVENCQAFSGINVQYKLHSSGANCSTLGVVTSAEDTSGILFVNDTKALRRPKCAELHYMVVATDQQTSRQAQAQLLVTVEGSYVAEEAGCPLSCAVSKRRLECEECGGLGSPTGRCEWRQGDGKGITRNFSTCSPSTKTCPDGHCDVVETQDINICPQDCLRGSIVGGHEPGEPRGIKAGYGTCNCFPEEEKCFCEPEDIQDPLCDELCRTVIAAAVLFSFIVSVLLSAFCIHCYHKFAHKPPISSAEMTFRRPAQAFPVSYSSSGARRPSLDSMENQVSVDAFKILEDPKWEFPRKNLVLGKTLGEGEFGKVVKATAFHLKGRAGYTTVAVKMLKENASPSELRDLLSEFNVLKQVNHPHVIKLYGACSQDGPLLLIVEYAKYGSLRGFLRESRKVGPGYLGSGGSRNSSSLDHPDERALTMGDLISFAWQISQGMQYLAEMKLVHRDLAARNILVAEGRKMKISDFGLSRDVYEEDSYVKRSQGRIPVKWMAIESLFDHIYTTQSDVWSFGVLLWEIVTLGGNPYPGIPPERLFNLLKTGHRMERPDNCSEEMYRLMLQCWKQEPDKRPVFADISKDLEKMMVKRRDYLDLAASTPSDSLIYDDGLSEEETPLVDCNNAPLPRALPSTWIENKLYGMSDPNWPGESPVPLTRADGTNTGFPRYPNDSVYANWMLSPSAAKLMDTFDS
T2 sequence (P07949 29-1114): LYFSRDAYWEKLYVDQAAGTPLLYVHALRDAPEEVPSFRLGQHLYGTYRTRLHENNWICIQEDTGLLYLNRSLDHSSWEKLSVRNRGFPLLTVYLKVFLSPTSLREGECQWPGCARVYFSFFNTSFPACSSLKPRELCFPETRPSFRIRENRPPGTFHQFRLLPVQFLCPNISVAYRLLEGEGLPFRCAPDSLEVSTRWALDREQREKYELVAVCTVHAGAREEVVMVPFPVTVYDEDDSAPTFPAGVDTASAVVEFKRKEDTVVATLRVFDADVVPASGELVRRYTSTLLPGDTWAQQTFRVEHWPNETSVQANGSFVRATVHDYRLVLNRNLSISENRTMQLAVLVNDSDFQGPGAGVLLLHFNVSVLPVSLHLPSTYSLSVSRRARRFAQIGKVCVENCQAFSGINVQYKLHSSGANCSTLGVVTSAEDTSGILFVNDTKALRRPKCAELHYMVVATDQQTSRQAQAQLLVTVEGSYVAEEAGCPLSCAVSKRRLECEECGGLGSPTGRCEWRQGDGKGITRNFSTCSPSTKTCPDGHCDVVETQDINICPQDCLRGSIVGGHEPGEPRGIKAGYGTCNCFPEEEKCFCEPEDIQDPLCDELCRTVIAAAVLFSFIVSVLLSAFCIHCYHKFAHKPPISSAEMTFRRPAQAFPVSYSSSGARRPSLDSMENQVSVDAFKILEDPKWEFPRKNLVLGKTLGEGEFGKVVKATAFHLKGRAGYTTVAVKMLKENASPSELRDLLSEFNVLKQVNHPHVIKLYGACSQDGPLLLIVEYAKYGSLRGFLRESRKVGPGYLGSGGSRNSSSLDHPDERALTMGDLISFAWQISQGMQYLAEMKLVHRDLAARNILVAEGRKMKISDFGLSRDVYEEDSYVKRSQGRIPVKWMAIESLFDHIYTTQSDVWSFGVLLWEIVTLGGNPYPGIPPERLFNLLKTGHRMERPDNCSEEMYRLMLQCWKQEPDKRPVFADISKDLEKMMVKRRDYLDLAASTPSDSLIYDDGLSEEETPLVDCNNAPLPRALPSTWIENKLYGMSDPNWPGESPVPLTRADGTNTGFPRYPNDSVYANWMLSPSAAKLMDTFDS

Structure (SMILES)	IC50 [1] [nM]	Ratio (KDR/RET) [1]	IC50 [2] [nM]	IC50 [3] [nM]	IC50 [4] [nM]	MRT ([5]; read-out: Average residence time MRT) [h]	Cmax ([5]; read-out: Blood concentration Cmax) [ng/mL]	AUC(0-t) ([5]; read-out: Curve area AUC0-t) [ng·h/mL]	AUC(0-inf) ([5]; read-out: Curve area AUC0-∞) [ng·h/mL]	half-life ([5]; read-out: Half-life t1/2 (converted)) [h]	Tmax ([5]; read-out: Peak time tmax) [h]
COc1ccc(CN2C3CC2CN(c2ccc(-c4cc(OCC5CCS(=N)(=O)CC5)cn5ncc(C#N)c45)cn2)C3)cn1 (centres unmarked) [Embodiment 54, 6-((1-Imino-1-hydroxyhexahydro-1l6-thiopyran-4-yl)methoxy)-4-(6-(6-((6-methoxypyridin-3-yl)methyl)-3,6-diazabicyclo[3.1.1]heptan-3-yl)pyridin-3-yl)pyrazolo[1,5-a]pyridine-3-carbonitrile]	9	26	0.34	9	–	–	–	–	–	–	–
CC(C)(O)C#Cc1cc(-c2ccc(N3CC4CC(C3)N4Cc3ccc(OC4CC4)nc3)nc2)c2c(C#N)cnn2c1 [Embodiment 26, 4-(6-(6-((6-Cyclopropoxypyridin-3-yl)methyl)-3,6-diazabicyclo[3.1.1]heptan-3-yl)pyridin-3-yl)-6-(3-hydroxy-3-methylbut-1-yn-1-yl)pyrazolo[1,5-a]pyridine-3-carbonitrile]	–	–	–	19	–	–	–	–	–	–	–
COc1ccc(CN2C3CC2CN(c2ccc(-c4cc(C#CCC(C)(C)O)cn5ncc(C#N)c45)cn2)C3)cn1 [Embodiment 48, 6-(4-Hydroxy-4-methylpent-1-yn-1-yl)-4-(6-(6-((6-methoxypyridin-3-yl)methyl)-3,6-diazabicyclo[3.1.1]heptan-3-yl)pyridin-3-yl)pyrazolo[1,5-a]pyridine-3-carbonitrile]	13	30	0.42	19.6	–	–	–	–	–	–	–
COc1ccc(CN2C3CC2CN(c2ccc(-c4cc(N5CC6(C5)CC(C)(O)C6)cn5ncc(C#N)c45)cn2)C3)cn1 [Embodiment 32, 6-(6-Hydroxy-6-methyl-2-azaspiro[3.3]heptan-2-yl)-4-(6-(6-((6-methoxypyridin-3-yl)methyl)-3,6-diazabicyclo[3.1.1]heptan-3-yl)pyridin-3-yl)pyrazolo[1,5-a]pyridine-3-carbonitrile]	1.8	4	0.49	2.07	–	–	–	–	–	–	–
COc1ccc(CN2C3CC2CN(c2ccc(-c4cc(C#CC(O)C5CC5)cn5ncc(C#N)c45)cn2)C3)cn1 (centres unmarked) [Embodiment 19, 6-(3-Cyclopropyl-3-hydroxyprop-1-yn-1-yl)-4-(6-(6-((6-methoxypyridin-3-yl)methyl)-3,6-diazabicyclo[3.1.1]heptan-3-yl)pyridin-3-yl)pyrazolo[1,5-a]pyridine-3-carbonitrile]	–	–	–	–	27.8	–	–	–	–	–	–
COc1ccc(CN2C3CC2CN(c2ccc(-c4cc(OCC56CC(O)(C5)C6)cn5ncc(C#N)c45)cn2)C3)cn1 [Embodiment 47, 6-((3-Hydroxybicyclo[1.1.1]pentan-1-yl)methoxy)-4-(6-(6-((6-methoxypyridin-3-yl)methyl)-3,6-diazabicyclo[3.1.1]heptan-3-yl)pyridin-3-yl)pyrazolo[1,5-a]pyridine-3-carbonitrile]	176	438	0.4	13.3	–	–	–	–	–	–	–
CC1(NC(=O)c2ncccc2Cl)CCN(c2ccc(-c3cc(OCC4(N)CC4)cn4ncc(C#N)c34)cn2)CC1 [Embodiment 91, N-(1-(5-(6-((1-aminocyclopropyl)methoxy)-3-cyanopyrazolo[1,5-a]pyridin-4-yl)pyridin-2-yl)-4-methylpiperidin-4-yl)-3-chloropicolinamide]	204	133	1.54	29.6	–	–	–	–	–	–	–
COCC(C)(O)C#Cc1cc(-c2ccc(N3CC4CC(C3)N4Cc3cnc(OC)c(F)c3)nc2)c2c(C#N)cnn2c1 (centres unmarked) [Embodiment 61, 4-(6-(6-((5-Fluoro-6-methoxypyridin-3-yl)methyl)-3,6-diazabicyclo[3.1.1]heptan-3-yl)pyridin-3-yl)-6-(3-hydroxy-4-methoxy-3-methylbut-1-yn-1-yl)pyrazolo[1,5-a]pyridine-3-carbonitrile]	11.2	32	0.35	–	16.8	–	–	–	–	–	–
[2H]C([2H])([2H])Oc1ccc(CN2C3CC2CN(c2ccc(-c4cc(N5CC(C(C)(C)O)C5)cn5ncc(C#N)c45)cn2)C3)cn1 [Embodiment 41, 6-(3-(2-Hydroxypropan-2-yl)azetidin-1-yl)-4-(6-(6-((6-(methoxy-d3)pyridin-3-yl)methyl)-3,6-diazabicyclo[3.1.1]heptan-3-yl)pyridin-3-yl)pyrazolo[1,5-a]pyridine-3-carbonitrile]	11	27	0.4	9.45	–	–	–	–	–	–	–
COc1ccc(CN2C3CC2CN(c2ccc(-c4cc(C#C[C@H](C)O)cn5ncc(C#N)c45)cn2)C3)cn1 [Embodiment 21, 6-((S)-3-Hydroxybut-1-yn-1-yl)-4-(6-(6-((6-methoxypyridin-3-yl)methyl)-3,6-diazabicyclo[3.1.1]heptan-3-yl)pyridin-3-yl)pyrazolo[1,5-a]pyridine-3-carbonitrile]	9.4	23	0.41	18.1	–	–	–	–	–	–	–
COc1ccc(CN2C3CC2CN(c2ccc(-c4cc(OCC5(C#N)CC5)cn5ncc(C#N)c45)cn2)C3)cn1 [Embodiment 27, 6-((1-Cyanocyclopropyl)methoxy)-4-(6-(6-((6-methoxypyridin-3-yl)methyl)-3,6-diazabicyclo[3.1.1]heptan-3-yl)pyridin-3-yl)pyrazolo[1,5-a]pyridine-3-carbonitrile]	88	280	0.32	–	15.9	–	–	–	–	–	–
COc1ccc(CN2C3CC2CN(c2ccc(-c4cc(OCC5(C#N)CCC5)cn5ncc(C#N)c45)cn2)C3)cn1 [Embodiment 36, 6-((1-Cyanocyclobutyl)methoxy)-4-(6-(6-((6-methoxypyridin-3-yl)methyl)-3,6-diazabicyclo[3.1.1]heptan-3-yl)pyridin-3-yl)pyrazolo[1,5-a]pyridine-3-carbonitrile]	213	257	0.83	–	–	3.8	1490	6210	6220	2.19	0.5
